Results as given in patent publication US20230167088A1, “1-PYRAZINYLPYRAZOLYL-3-OXYALKYL ACIDS AND THEIR DERIVATIVES, AND THEIR USE FOR CONTROL OF UNDESIRED PLANT GROWTH” (BAYER AKTIENGESELLSCHAFT, priority 2020, published 2023).

Legend:
[1] = tested on: POAAN; assay: Herbicidal pre-emergence action 2b (doubly sown, 1280 g/ha); type: in vivo, Poa annua; details: doubly sown pots, dosage 1280 g/ha, visual scoring after about 3 weeks
Description: (§1) [table] b) Seeds of mono- and dicotyledonous weed plants are placed in plastic pots in sandy loam soil (doubly sown with one species each of mono- or dicotyledonous weed plants per pot) and covered with soil. The compounds of the invention, formulated in the form of wettable powders (WP) or as emulsion concentrates (EC), are then applied onto the surface of the covering soil as aqueous suspension or emulsion with addition of 0.5% additive at a water application rate equivalent to 600 litres per hectare. After the treatment, the pots are placed in a greenhouse and kept under good growth conditions for the trial plants. After about 3 weeks, the effect of the preparations is scored visually in comparison with untreated controls as percentages. For example, 100% activity=the plants have died, 0% activity=like control plants. Tables B16 to B21 below show the effects of selected compounds of the general formula (I) according to Tables 1 and 2 on various harmful plants and at an application rate corresponding to 1280 g/ha, which were obtained by the experimental procedure mentioned above.

[2] = tested on: STEME; assay: as above; type: in vivo, Stellaria media; details: doubly sown pots, dosage 1280 g/ha, visual scoring after about 3 weeks
Description: as §1

[3] = tested on: AMARE; assay: as above; type: in vivo, Amaranthus retroflexus; details: doubly sown pots, dosage 1280 g/ha, visual scoring after about 3 weeks
Description: as §1

[4] = tested on: POAAN; assay: Herbicidal post-emergence action 1b (twin sowing, 1280 g/ha); type: in vivo, Poa annua; details: dosage 1280 g/ha, visual rating about 3 weeks after treatment
Protocol: [table] b) Seeds of mono- and dicotyledonous weed plants are placed in plastic pots in sandy loam soil (twin sowing with one species each of mono- or dicotyledonous weed plants per pot), covered with soil and cultivated in a greenhouse under controlled growth conditions. 2 to 3 weeks after sowing, the test plants are treated at the one-leaf stage. The compounds of the invention, formulated in the form of wettable powders (WP) or as emulsion concentrates (EC), are applied to the green parts of the plants as aqueous suspension or emulsion with addition of 0.5% additive at a water application rate equivalent to 600 litres per hectare. After the test plants have been kept in the greenhouse under optimum growth conditions for about 3 weeks, the activity of the preparations is rated visually in comparison to untreated controls. For example, 100% activity=the plants have died, 0% activity=like control plants. Tables A16 to A21 below show the effects of selected compounds of the general formula (I) according to Tables 1 and 2 on various harmful plants and at an application rate corresponding to 1280 g/ha, which were obtained by the experimental procedure mentioned above.

[5] = tested on: ALOMY; assay: Herbicidal pre-emergence action 2a (greenhouse pots, visual scoring); type: in vivo, Alopecurus myosuroides; details: dosage 320 g/ha, visual scoring after about 3 weeks
Description: (§2) [table] a) Seeds of monocotyledonous and dicotyledonous weed plants and crop plants are placed in plastic or organic plant pots and covered with soil. The compounds of the invention, formulated in the form of wettable powders (WP) or as emulsion concentrates (EC), are then applied onto the surface of the covering soil as aqueous suspension or emulsion with addition of 0.5% additive at a water application rate of 600 1/ha (converted). After the treatment, the pots are placed in a greenhouse and kept under good growth conditions for the trial plants. After about 3 weeks, the effect of the preparations is scored visually in comparison with untreated controls as percentages. For example, 100% activity=the plants have died, 0% activity=like control plants. Tables B1 to B15 below show the effects of selected compounds of the general formula (I) according to Tables 1 and 2 on various harmful plants and an application rate corresponding to 320 g/ha and/or 80 g/ha, which were obtained by the experimental procedure mentioned above.

[6] = tested on: ECHCG; assay: Herbicidal pre-emergence action 2b (doubly sown, 1280 g/ha); type: in vivo, Echinochloa crus-galli; details: doubly sown pots, dosage 1280 g/ha, visual scoring after about 3 weeks
Description: as §1

[7] = tested on: AMARE; assay: Herbicidal post-emergence action 1a (greenhouse pots, visual rating); type: in vivo, Amaranthus retroflexus; details: visual rating about 3 weeks after treatment
Protocol: (§3) [table] a) Seeds of monocotyledonous and dicotyledonous weeds and crop plants are placed in sandy loam in plastic or organic plant pots, covered with soil and cultivated in a greenhouse under controlled growth conditions. 2 to 3 weeks after sowing, the test plants are treated at the one-leaf stage. The compounds of the invention, formulated in the form of wettable powders (WP) or as emulsion concentrates (EC), are then sprayed onto the green parts of the plants as aqueous suspension or emulsion with addition of 0.5% additive at a water application rate of 600 1/ha (converted). After the test plants have been kept in the greenhouse under optimum growth conditions for about 3 weeks, the activity of the preparations is rated visually in comparison to untreated controls. For example, 100% activity=the plants have died, 0% activity=like control plants. Tables A1 to A15 below show the effects of selected compounds of the general formula (I) according to Tables 1 and 2 on various harmful plants and an application rate corresponding to 320 g/ha and/or 80 g/ha, which were obtained by the experimental procedure mentioned above.

[8] = tested on: AMARE; assay: Herbicidal pre-emergence action 2a (greenhouse pots, visual scoring); type: in vivo, Amaranthus retroflexus; details: dosage 320 g/ha, visual scoring after about 3 weeks vs untreated controls
Description: as §2

[9] = tested on: VERPE; assay: Herbicidal post-emergence action 1a (greenhouse pots, visual rating); type: in vivo, Veronica persica; details: dosage 320 g/ha, visual rating about 3 weeks after treatment
Protocol: as §3

[10] = tested on: AVEFA; assay: Herbicidal pre-emergence action 2a (greenhouse pots, visual scoring); type: in vivo, Avena fatua; details: dosage 320 g/ha, visual scoring after about 3 weeks
Description: as §2

[11] = tested on: LOLRI; assay: as above; type: in vivo, Lolium rigidum; details: dosage 320 g/ha, visual scoring after about 3 weeks vs untreated controls
Description: as §2

[12] = tested on: ALOMY; assay: Herbicidal post-emergence action 1a (greenhouse pots, visual rating); type: in vivo, Alopecurus myosuroides; details: rated visually about 3 weeks after treatment, 100% = plants have died, 0% = like control plants
Protocol: as §3

[13] = tested on: LOLRI; assay: as above; type: in vivo, Lolium rigidum; details: Dosage 320 g/ha; rated visually about 3 weeks after treatment; 100% = plants have died, 0% = like control plants
Protocol: as §3

[14] = tested on: AVEFA; assay: as above; type: in vivo, Avena fatua; details: rated visually about 3 weeks after treatment, 100% = plants have died, 0% = like control plants
Protocol: as §3

[15] = tested on: SETVI; assay: Herbicidal pre-emergence action 2a (greenhouse pots, visual scoring); type: in vivo, Setaria viridis; details: dosage 320 g/ha, visual scoring after about 3 weeks vs untreated controls
Description: as §2

[16] = tested on: VERPE; assay: as above; type: in vivo, Veronica persica; details: dosage 320 g/ha, visual scoring after about 3 weeks vs untreated controls
Description: as §2

[17] = tested on: POLCO; assay: Herbicidal post-emergence action 1a (greenhouse pots, visual rating); type: in vivo, Polygonum convolvulus; details: dosage 320 g/ha, visual rating about 3 weeks after treatment
Protocol: as §3

[18] = tested on: POLCO; assay: Herbicidal pre-emergence action 2a (greenhouse pots, visual scoring); type: in vivo, Polygonum convolvulus; details: dosage 320 g/ha, visual scoring after about 3 weeks vs untreated controls
Description: as §2

[19] = tested on: PHBPU; assay: Herbicidal post-emergence action 1a (greenhouse pots, visual rating); type: in vivo, Pharbitis purpurea; details: dosage 80 g/ha, visual rating about 3 weeks after treatment
Protocol: as §3

Compound: COC(=O)C(C)Oc1nn(-c2cnccn2)c(-c2ccccc2)c1Br (racemic) [Example I-19]
- Pre-emergence action at 1280 g/ha against POAAN in % [1]: 100%
- Pre-emergence action at 1280 g/ha against STEME in % [2]: 100%
- Pre-emergence action at 1280 g/ha against AMARE in % [3]: 100%
- Post-emergence action at 1280 g/ha against POAAN in % [4]: 100%

Compound: COC(=O)CCNC(=O)[C@@H](C)Oc1nn(-c2cnccn2)c(-c2ccc(F)nc2)c1Br [II-02]
- Pre-emergence action against ALOMY in % [5]: 80%

Compound: COC(=O)COc1nn(-c2cnccn2)c(-c2ccc(F)c(F)c2)c1C#N [Example I-23]
- Pre-emergence action at 1280 g/ha against ECHCG in % [6]: 100%
- Pre-emergence action at 1280 g/ha against AMARE in % [3]: 100%

Compound: CC(C)N(C)S(=O)(=O)NC(=O)COc1nn(-c2cnccn2)c(-c2ccc(F)nc2)c1Br [II-13]
- Post-emergence action against AMARE in % ([7]; dosage 80 g/ha): 80%
- Pre-emergence action against AMARE in % [8]: 90%

Compound: CCOC(=O)[C@@H](C)Oc1nn(-c2cnccn2)c(-c2ccc(F)nc2)c1C1CC1 [Example I-88]
- Post-emergence action against VERPE in % [9]: 80%
- Pre-emergence action against AVEFA in % [10]: 90%
- Pre-emergence action against LOLRI in % [11]: 100%
- Post-emergence action against AMARE in % ([7]; dosage 320 g/ha): 80%
- Post-emergence action against ALOMY in % ([12]; Dosage 80 g/ha): 80%
- Post-emergence action against ALOMY in % ([12]; Dosage 320 g/ha): 100%
- Post-emergence action against LOLRI in % [13]: 100%
- Post-emergence action against AVEFA in % ([14]; Dosage 320 g/ha): 100%
- Pre-emergence action against SETVI in % [15]: 80%
- Pre-emergence action against VERPE in % [16]: 90%
- Post-emergence action against POLCO in % [17]: 80%
- Pre-emergence action against ALOMY in % [5]: 100%
- Pre-emergence action against POLCO in % [18]: 80%

Compound: CC(Oc1nn(-c2cnccn2)c(-c2ccc(F)nc2)c1C1CC1)C(=O)O (centres unmarked) [Example I-86]
- Pre-emergence action against LOLRI in % [11]: 100%
- Pre-emergence action against AMARE in % [8]: 80%
- Post-emergence action against ALOMY in % ([12]; Dosage 80 g/ha): 90%
- Post-emergence action against AVEFA in % ([14]; Dosage 80 g/ha): 90%
- Pre-emergence action against ALOMY in % [5]: 100%
- Pre-emergence action against POLCO in % [18]: 80%

Compound: O=C(COc1nn(-c2cnccn2)c(-c2ccc(F)nc2)c1Br)NCC1CC1 [II-10]
- Post-emergence action against PHBPU in % [19]: 80%
- Post-emergence action against AMARE in % ([7]; dosage 80 g/ha): 80%

Compound: COC(=O)[C@@H](C)Oc1nn(-c2cnccn2)c(-c2ccc(F)nc2)c1C1CC1 [Example I-87]
- Pre-emergence action against AVEFA in % [10]: 90%
- Pre-emergence action against LOLRI in % [11]: 100%
- Post-emergence action against AMARE in % ([7]; dosage 80 g/ha): 80%
- Post-emergence action against ALOMY in % ([12]; Dosage 80 g/ha): 100%
- Post-emergence action against AVEFA in % ([14]; Dosage 80 g/ha): 90%
- Pre-emergence action against SETVI in % [15]: 100%
- Pre-emergence action against VERPE in % [16]: 80%
- Pre-emergence action against ALOMY in % [5]: 100%

Compound: COC(=O)COc1nn(-c2cnccn2)c(-c2ccc(F)nc2)c1C1CC1 [Example I-84]
- Post-emergence action against VERPE in % [9]: 80%
- Post-emergence action against AMARE in % ([7]; dosage 80 g/ha): 90%
- Post-emergence action against AMARE in % ([7]; dosage 320 g/ha): 90%
- Pre-emergence action against AMARE in % [8]: 90%
- Post-emergence action against POLCO in % [17]: 80%

Compound: C[C@@H](Oc1nn(-c2cnccn2)c(-c2ccc(F)nc2)c1Br)C(=O)NCC1CC1 [II-06]
- Pre-emergence action against VERPE in % [16]: 100%
